In ChEMBL document CHEMBL3885881, “DrugMatrix”:

Organism: Rattus norvegicus
Test: DrugMatrix - Regimen: Daily Repeat
Type: toxicity, organism-based, Sprague-Dawley
Parameters: regimen Daily Repeat, gender Male, age 6-8 weeks
Conditions: in vivo, po, route oral GAVAGE, […]; for ABSOLUTE BASOPHIL / ABSOLUTE EOSINOPHIL / ABSOLUTE LYMPHOCYTE / ABSOLUTE MONOCYTE / ABSOLUTE SEGMENTED NEUTROPHIL / BASOPHIL / EOSINOPHIL / ERYTHROCYTE COUNT / HEMATOCRIT / HEMOGLOBIN / LEUKOCYTE COUNT / LYMPHOCYTE / MEAN CORPUSCULAR HEMOGLOBIN / MEAN CORPUSCULAR HEMOGLOBIN CONCENTRATION / MEAN CORPUSCULAR VOLUME / MONOCYTE / NEUTROPHIL / NUCLEATED RED BLOOD CELLS / PLATELET COUNT: tissue Blood; for ALANINE AMINOTRANSFERASE / ALBUMIN / ALKALINE PHOSPHATASE / ASPARTATE AMINOTRANSFERASE / BLOOD UREA NITROGEN / CARBON DIOXIDE / CHLORIDE / CHOLESTEROL / CREATINE PHOSPHOKINASE / CREATININE / GLUCOSE / LACTATE DEHYDROGENASE / LIPASE / PHOSPHORUS / POTASSIUM / SODIUM / TOTAL BILIRUBIN / TOTAL PROTEIN / URIC ACID: tissue Plasma
[1] = 0 mg/kg, 72 h, dose level Control, time 3 day
[2] = 0 mg/kg, dose level Control, time 7 day
[3] = 130 mg/kg, 72 h, dose level Low, time 3 day

Question: With `CCOC(=O)C(C)(C)Oc1ccc(Cl)cc1` [CLOFIBRATE] as the compound, how does the “ABSOLUTE BASOPHIL” value [1] read?
Answer: 0 CELLS/uL

Question: And the “ABSOLUTE EOSINOPHIL” value [1]?
Answer: 37.33 CELLS/uL

Question: What about the “ABSOLUTE LYMPHOCYTE” value [1] of the same compound?
Answer: 6295.33 CELLS/uL

Question: What about the “ABSOLUTE MONOCYTE” value [1] of the same compound?
Answer: 122.17 CELLS/uL

Question: What about the “ABSOLUTE SEGMENTED NEUTROPHIL” value [1] of the same compound?
Answer: 861.83 CELLS/uL

Question: What about the BASOPHIL [1] of the same compound?
Answer: 0%

Question: And the EOSINOPHIL [1]?
Answer: 0.5%

Question: And the “ERYTHROCYTE COUNT” value [1]?
Answer: 5.2 x10E6/uL

Question: And the HEMATOCRIT [1]?
Answer: 32.58%

Question: What about the HEMOGLOBIN [1] of the same compound?
Answer: 12.95 G/DL

Question: And the “LEUKOCYTE COUNT” value [1]?
Answer: 7.32 x10E3/uL

Question: And the LYMPHOCYTE [1]?
Answer: 86%

Question: What about the “MEAN CORPUSCULAR HEMOGLOBIN” value [1] of the same compound?
Answer: 24.93 pg

Question: What about the “MEAN CORPUSCULAR HEMOGLOBIN CONCENTRATION” value [1] of the same compound?
Answer: 39.77 G/DL

Question: And the “MEAN CORPUSCULAR VOLUME” value [1]?
Answer: 62.65 fL

Question: What about the MONOCYTE [1] of the same compound?
Answer: 1.67%

Question: And the NEUTROPHIL [1]?
Answer: 11.83%

Question: And the “NUCLEATED RED BLOOD CELLS” value [1]?
Answer: 0 /100WBC

Question: And the “PLATELET COUNT” value [1]?
Answer: 1029 x10E3/uL

Question: What about the “ALANINE AMINOTRANSFERASE” value [1] of the same compound?
Answer: 63.67 u/L

Question: What about the ALBUMIN [1] of the same compound?
Answer: 4.12 G/DL

Question: And the “ALKALINE PHOSPHATASE” value [1]?
Answer: 329.83 u/L

Question: And the “ASPARTATE AMINOTRANSFERASE” value [1]?
Answer: 77.67 u/L

Question: And the “BLOOD UREA NITROGEN” value [1]?
Answer: 18 mg/dL

Question: And the “CARBON DIOXIDE” value [1]?
Answer: 29.67 mmol/L

Question: And the CHLORIDE [1]?
Answer: 102.67 MEQ/L

Question: What about the CHOLESTEROL [1] of the same compound?
Answer: 64.5 mg/dL

Question: What about the “CREATINE PHOSPHOKINASE” value [1] of the same compound?
Answer: 178.67 u/L

Question: What about the CREATININE [1] of the same compound?
Answer: 0.18 mg/dL

Question: And the GLUCOSE [1]?
Answer: 163.83 mg/dL

Question: What about the “LACTATE DEHYDROGENASE” value [1] of the same compound?
Answer: 75.83 u/L

Question: What about the LIPASE [1] of the same compound?
Answer: 10 u/L

Question: And the PHOSPHORUS [1]?
Answer: 8.28 mg/dL

Question: And the POTASSIUM [1]?
Answer: 4.79 MEQ/L

Question: What about the SODIUM [1] of the same compound?
Answer: 142.22 MEQ/L

Question: And the “TOTAL BILIRUBIN” value [1]?
Answer: 0.22 mg/dL

Question: What about the “TOTAL PROTEIN” value [1] of the same compound?
Answer: 5.78 G/DL

Question: And the “URIC ACID” value [1]?
Answer: 0.87 mg/dL

Question: What about the “ABSOLUTE BASOPHIL” value [2] of the same compound?
Answer: 0 CELLS/uL

Question: And the “ABSOLUTE EOSINOPHIL” value [2]?
Answer: 19 CELLS/uL

Question: And the “ABSOLUTE LYMPHOCYTE” value [2]?
Answer: 7803.5 CELLS/uL

Question: What about the “ABSOLUTE MONOCYTE” value [2] of the same compound?
Answer: 117.83 CELLS/uL

Question: And the “ABSOLUTE SEGMENTED NEUTROPHIL” value [2]?
Answer: 1093 CELLS/uL

Question: What about the BASOPHIL [2] of the same compound?
Answer: 0%

Question: And the EOSINOPHIL [2]?
Answer: 0.17%

Question: What about the “ERYTHROCYTE COUNT” value [2] of the same compound?
Answer: 5.84 x10E6/uL

Question: What about the HEMATOCRIT [2] of the same compound?
Answer: 35.75%

Question: What about the HEMOGLOBIN [2] of the same compound?
Answer: 13.87 G/DL

Question: What about the “LEUKOCYTE COUNT” value [2] of the same compound?
Answer: 9.03 x10E3/uL

Question: What about the LYMPHOCYTE [2] of the same compound?
Answer: 87.17%

Question: What about the “MEAN CORPUSCULAR HEMOGLOBIN” value [2] of the same compound?
Answer: 23.78 pg

Question: And the “MEAN CORPUSCULAR HEMOGLOBIN CONCENTRATION” value [2]?
Answer: 38.8 G/DL

Question: What about the “MEAN CORPUSCULAR VOLUME” value [2] of the same compound?
Answer: 61.25 fL

Question: And the MONOCYTE [2]?
Answer: 1.17%

Question: What about the NEUTROPHIL [2] of the same compound?
Answer: 11.5%

Question: And the “NUCLEATED RED BLOOD CELLS” value [2]?
Answer: 0 /100WBC

Question: And the “PLATELET COUNT” value [2]?
Answer: 1098.67 x10E3/uL

Question: And the “ALANINE AMINOTRANSFERASE” value [2]?
Answer: 66 u/L

Question: And the ALBUMIN [2]?
Answer: 4.3 G/DL

Question: And the “ALKALINE PHOSPHATASE” value [2]?
Answer: 291.83 u/L

Question: And the “ASPARTATE AMINOTRANSFERASE” value [2]?
Answer: 80.5 u/L

Question: What about the “BLOOD UREA NITROGEN” value [2] of the same compound?
Answer: 15.67 mg/dL

Question: And the “CARBON DIOXIDE” value [2]?
Answer: 30 mmol/L

Question: What about the CHLORIDE [2] of the same compound?
Answer: 101.67 MEQ/L

Question: What about the CHOLESTEROL [2] of the same compound?
Answer: 69.67 mg/dL

Question: And the “CREATINE PHOSPHOKINASE” value [2]?
Answer: 363.33 u/L

Question: And the CREATININE [2]?
Answer: 0.25 mg/dL

Question: And the GLUCOSE [2]?
Answer: 146.5 mg/dL

Question: And the “LACTATE DEHYDROGENASE” value [2]?
Answer: 219.67 u/L

Question: What about the LIPASE [2] of the same compound?
Answer: 11.33 u/L

Question: What about the PHOSPHORUS [2] of the same compound?
Answer: 10.08 mg/dL

Question: And the POTASSIUM [2]?
Answer: 5.22 MEQ/L

Question: And the SODIUM [2]?
Answer: 144.67 MEQ/L

Question: And the “TOTAL BILIRUBIN” value [2]?
Answer: 0.12 mg/dL

Question: What about the “TOTAL PROTEIN” value [2] of the same compound?
Answer: 6.33 G/DL

Question: And the “URIC ACID” value [2]?
Answer: 0.75 mg/dL

Question: What about the “ABSOLUTE BASOPHIL” value [3] of the same compound?
Answer: 0 CELLS/uL

Question: What about the “ABSOLUTE EOSINOPHIL” value [3] of the same compound?
Answer: 0 CELLS/uL

Question: And the “ABSOLUTE LYMPHOCYTE” value [3]?
Answer: 6441.67 CELLS/uL

Question: And the “ABSOLUTE MONOCYTE” value [3]?
Answer: 98 CELLS/uL

Question: And the “ABSOLUTE SEGMENTED NEUTROPHIL” value [3]?
Answer: 743.67 CELLS/uL

Question: And the BASOPHIL [3]?
Answer: 0%

Question: What about the EOSINOPHIL [3] of the same compound?
Answer: 0%

Question: And the “ERYTHROCYTE COUNT” value [3]?
Answer: 5.19 x10E6/uL

Question: What about the HEMATOCRIT [3] of the same compound?
Answer: 32.77%

Question: What about the HEMOGLOBIN [3] of the same compound?
Answer: 13.27 G/DL

Question: What about the “LEUKOCYTE COUNT” value [3] of the same compound?
Answer: 7.28 x10E3/uL

Question: And the LYMPHOCYTE [3]?
Answer: 88.83%

Question: What about the “MEAN CORPUSCULAR HEMOGLOBIN” value [3] of the same compound?
Answer: 25.65 pg

Question: What about the “MEAN CORPUSCULAR HEMOGLOBIN CONCENTRATION” value [3] of the same compound?
Answer: 40.57 G/DL

Question: What about the “MEAN CORPUSCULAR VOLUME” value [3] of the same compound?
Answer: 63.17 fL

Question: And the MONOCYTE [3]?
Answer: 1.33%

Question: And the NEUTROPHIL [3]?
Answer: 9.83%

Question: And the “NUCLEATED RED BLOOD CELLS” value [3]?
Answer: 0 /100WBC

Question: And the “PLATELET COUNT” value [3]?
Answer: 1091.67 x10E3/uL

Question: And the “ALANINE AMINOTRANSFERASE” value [3]?
Answer: 69.83 u/L

Question: And the ALBUMIN [3]?
Answer: 4.22 G/DL

Question: What about the “ALKALINE PHOSPHATASE” value [3] of the same compound?
Answer: 373.67 u/L

Question: And the “ASPARTATE AMINOTRANSFERASE” value [3]?
Answer: 86 u/L

Question: And the “BLOOD UREA NITROGEN” value [3]?
Answer: 16.5 mg/dL

Question: What about the “CARBON DIOXIDE” value [3] of the same compound?
Answer: 30.17 mmol/L

Question: What about the CHLORIDE [3] of the same compound?
Answer: 101.83 MEQ/L

Question: And the CHOLESTEROL [3]?
Answer: 48.17 mg/dL

Question: What about the “CREATINE PHOSPHOKINASE” value [3] of the same compound?
Answer: 463.67 u/L

Question: What about the CREATININE [3] of the same compound?
Answer: 0.14 mg/dL

Question: And the GLUCOSE [3]?
Answer: 170.83 mg/dL

Question: And the “LACTATE DEHYDROGENASE” value [3]?
Answer: 85.33 u/L

Question: And the LIPASE [3]?
Answer: 9.67 u/L

Question: What about the PHOSPHORUS [3] of the same compound?
Answer: 8.43 mg/dL

Question: And the POTASSIUM [3]?
Answer: 5.04 MEQ/L

Question: And the SODIUM [3]?
Answer: 142.75 MEQ/L

Question: And the “TOTAL BILIRUBIN” value [3]?
Answer: 0.18 mg/dL

Question: What about the “TOTAL PROTEIN” value [3] of the same compound?
Answer: 5.87 G/DL

Question: And the “URIC ACID” value [3]?
Answer: 0.93 mg/dL
